Among the data in PubChem BioAssay (NCI) are GI50 and TGI values, retold here.

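The compound was tested at five concentrations on cells cultured in 96-well plates, with a 48-hour exposure period. The concentration for 50% growth inhibition is given as GI50. At the TGI there is no net growth.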

This assay relates to MDA-MB-468 breast. In words: NCI-60 cell line screen, 48 h.
As to `CCCCCc1ccc(S(=O)(=O)Nc2cccc(-c3csc(NCCN4CCN(C)CC4)n3)c2)cc1`, the GI50 was 1630 nM and the TGI came to 3160 nM. Regarding `Cc1nc2cnc3cc(F)c(-c4ccc(Oc5ncccn5)cc4Cl)cc3c2n1[C@H]1CCN(C(=O)CO)C[C@@H]1F`, the GI50 was 9470 nM and the TGI worked out at 28900 nM. On to `O=C1/C(=C/c2ccc([N+](=O)[O-])o2)Oc2ccc(Br)cc21`, for which the GI50 is 2020 nM and the TGI was 4460 nM. On to `COc1cc(Cn2c(=S)ss/c2=N\C(=S)N(C)C)cc(OC)c1OC`, for which the GI50 was 7040 nM and the TGI was over 100000 nM. As for `CCN1CCN(CC(=O)Nc2nc3ccc(NCc4ccc(Cl)cc4)cc3s2)CC1`, the GI50 was 1770 nM and the TGI turned out to be 4610 nM. For the compound `CCCCCCCCCCCCCCCC[N+](C)(C)CCN(Cc1ccc(OC)cc1)c1ncccn1`, the GI50 was 1040 nM and the TGI worked out at 3580 nM. Turning to `N=c1c2c(-c3ccccc3)c(-c3ccccc3)n(Cc3ccccc3)c2ncn1CCCO`, the GI50 is 581 nM and the TGI is 2090 nM.

As to `COc1ccc(C/C(C)=C(\c2ccc(OCCN3CCOCC3)cc2)c2ccc(OC(=O)Cc3ccccc3)cc2)cc1`, the GI50 was 514 nM and the TGI worked out at 1470 nM.

In the case of `COc1ccc2c(c1)c(-c1nc(-c3c[nH]c4ncccc34)cs1)cn2CCCCN1CCOCC1`, the GI50 was 1950 nM and the TGI is 3980 nM. In the same order, the values of `COc1ccc(-c2cc(-c3ccccc3)nc(N3CCN(CCNc4ccnc5cc(Cl)ccc45)CC3)n2)cc1` are 1220 nM and 2620 nM.

On to `O=C(CCCCCCSc1nc(-c2ccccc2)cc(-c2ccccc2)n1)NO`, for which the GI50 is 2770 nM and the TGI stood at 10500 nM. As for `CC(C)[C@@]12C[C@@H](OC(=O)COC(=O)/C=C/c3ccccc3)[C@@](C)(O1)[C@@H]1CC[C@@H](C)[C@H]1[C@@H]2OC(=O)/C=C/c1ccccc1`, the GI50 is over 61400 nM and the TGI is over 100000 nM.

Regarding `COc1ccc(-c2nnc(SCC(=O)Nc3ccc(/C(C)=N\O)cc3)n2-c2ccccc2)cc1OC`, the GI50 was 16400 nM and the TGI was over 100000 nM. On to `CCc1cccc2c3c(sc12)C(c1ccc(Cl)cc1)C(C#N)=C(N)O3` (stereo unspecified), for which the GI50 is 280 nM and the TGI amounted to 1020 nM. Turning to `C[C@H]1[C@H](C)CC[C@]2(C(=O)N3CCN(C)CC3)CC[C@]3(C)C(=CC[C@@H]4[C@@]5(C)C/C(=C/c6cccnc6)C(=O)C(C)(C)[C@@H]5CC[C@]43C)[C@H]12`, the GI50 is 665 nM and the TGI came out at 2040 nM. For `Cn1ccc2c(c1=O)C(=O)c1nccc3c1c-2nc1ccccc13`, the GI50 is 1440 nM and the TGI stood at 2810 nM. As to `COc1ccc(C(=O)/C=C/c2c(C(F)(F)F)nc3sccn23)cc1OC`, the GI50 was 6180 nM and the TGI was over 100000 nM. In the same order, the values of `Cn1c(=O)c(Oc2ccc(F)cc2F)cc2cnc(NC(CO)CO)nc21` are over 25000 nM and over 25000 nM. For the compound `Cc1nc2sc(C(=O)Nc3cccc4ccccc34)c(N)c2cc1C(=O)/C=C/c1ccccc1`, the GI50 is 194 nM and the TGI came out at 745 nM.

As for `CN(c1ccc(NC(=O)Nc2ccc(OC(F)(F)F)cc2)cc1)c1ccnc(Nc2cccc(S(N)(=O)=O)c2)n1`, the GI50 was 3930 nM and the TGI was found to be 8860 nM. Take `COC(=O)c1cc(-c2cc(OC)c(OC)c(OC)c2)[nH]c1N/N=C/c1c(Cl)cccc1Cl`: the GI50 was 8290 nM and the TGI was 48200 nM. Consider `C/C(=C\c1ccn(-c2ccc(N)c(F)c2)n1)[C@@H]1C[C@@H]2O[C@]2(C)CCC[C@H](C)[C@H](O)[C@@H](C)C(=O)C(C)(C)[C@@H](O)CC(=O)O1`, for which the GI50 is 9.96 nM.

For `CC(CN1CCN(C)CC1)CN1c2ccccc2Sc2ccc(C(F)(F)F)cc21` (stereo unspecified), the GI50 was 1630 nM and the TGI is 3220 nM.

For the compound `O=C1CC(c2ccc3c(c2)OCO3)Nc2cc3c(cc21)OCO3` (stereo unspecified), the GI50 is 295 nM and the TGI was found to be 924 nM. `C=CCNCCCN1C(=O)c2ccc3c4c(ccc(c24)C1=O)C(=O)N(CCCNCC=C)C3=O`: the GI50 is 177 nM and the TGI is 423 nM. In the case of `CC1=CCC(OC(=O)C(C)(C)CCC(O)(C(=O)OC2(C(C)C)CCC3(C)OC3C2)C(C)C)(C(C)C)CC1` (stereo unspecified), the GI50 is 351 nM and the TGI stood at 1240 nM.

`COc1ccc(C(=O)COc2cccc(/C=C3\CSc4ccccc4C3=O)c2)cc1`: the GI50 was 1420 nM and the TGI came out at 2930 nM. As for `C=C(C)[C@@H]1CC[C@]2(C(=O)NCCNCCNCCN)CC[C@]3(C)[C@H](CC[C@@H]4[C@@]5(C)CC[C@H](O)C(C)(C)[C@@H]5CC[C@]43C)[C@@H]12`, the GI50 is 8880 nM and the TGI came to 22700 nM. In the case of `C=CC1=C[C@@H]2[C@@H]3O[C@]4(CC[C@H](O4)[C@@H](C)C[C@@H](O)C3=O)C[C@H](O)C3=NCC[C@@]32CC1`, the GI50 is under 3.33 nM and the TGI is under 3.33 nM. As for `CC(C)(C)c1cc(NC(=O)Nc2ccc(-c3cn4c5c(sc4n3)CCc3c[nH]cc3-5)cc2)no1`, the GI50 was 1970 nM and the TGI was 32800 nM.

Regarding `C[C@]12CC[C@@H]3c4ccc(O)cc4CC[C@H]3[C@@H]1CC[C@@H]2NS(=O)(=O)c1cccc(C(F)(F)F)c1`, the GI50 was 4080 nM and the TGI amounted to 16900 nM.

For the compound `NC(=O)c1cc([N+](=O)[O-])c(Cl)c([N+](=O)[O-])c1`, the GI50 is 1670 nM and the TGI worked out at 3320 nM. Consider `COc1cc(C(O)c2nc3ccccc3s2)cc(OC)c1OC` (stereo unspecified), for which the GI50 was 5680 nM and the TGI is 57200 nM. Turning to `CCN(CCNc1ccc(C)c2sc3cc(Cl)ccc3c(=O)c12)CC(C)O` (stereo unspecified), the GI50 is 1740 nM and the TGI was found to be 3390 nM. Consider `COc1ccc(-c2cnnn2-c2cc(OC)c3c(c2)OCO3)cc1`, for which the GI50 was 56.5 nM and the TGI was over 100000 nM. Turning to `O=C1/C(=C/c2ccccc2F)CNC/C1=C\c1ccccc1F`, the GI50 is 626 nM and the TGI is 2750 nM.

For `Cc1ccc2cc3c(ccc4ccccc43)c3c2c1CC3`, the GI50 is 169 nM and the TGI was determined as 372 nM. As for `NC1=C(Br)C(=O)c2ncccc2C1=O`, the GI50 was 570 nM and the TGI came to 2130 nM.

Take `Cc1cc(NC(=O)NC(=O)c2ccccc2N)ccc1Oc1ncc(Br)cn1`: the GI50 is under 10 nM and the TGI was over 100000 nM.

In the case of `COc1ccn2c(C(C)=O)cc(C(=O)c3ccc4c(c3)Sc3ccccc3N4)c2c1`, the GI50 was 159 nM and the TGI was over 24800 nM. Consider `CN(C)c1ccc(-c2cc(-c3ccc(Nc4nc(Nc5ccccc5)nc(Nc5ccc(Cl)cc5)n4)cc3)nc(N)n2)cc1`, for which the GI50 was 7910 nM and the TGI was over 100000 nM. With `CN1CCN(c2nc(NCCCCNc3ccnc4cc(Cl)ccc34)c3ccccc3n2)CC1`, the GI50 was 1580 nM and the TGI was determined as 3660 nM. Take `CS(=O)(=O)c1ccc(-c2cnc(N)c(C(=O)Nc3ccccc3)n2)cc1`: the GI50 is over 37200 nM and the TGI is over 100000 nM. Take `O=C1c2ccc3c4c5ccc(c24)C(=O)N1CCCOCCCCOCCCNCc1ccc(cc1)CNCCCOCCCCOCCCN(C3=O)C5=O`: the GI50 is 802 nM and the TGI is 1650 nM. Take `N#Cc1c2cccnc2c2nnc3cc(Cl)c(Cl)cc3n12`: the GI50 is 1100 nM and the TGI came out at 2590 nM. As for `Cn1ccnc1C(=O)/C=C/c1ccc(CC(=O)Nc2ccc(S(F)(F)(F)(F)F)cc2)cc1`, the GI50 was 2480 nM and the TGI came out at 5170 nM.
